According to patent publication US9694016B2 (Novartis AG, priority 2013, dated 2017):
pIC50: −log10 of the molar value. Like-named read-outs stand apart in the source and are kept apart here.

Molecular target: b-Raf (V600E) (Homo sapiens (Human), UniProt P15056, V600E)
Conditions: read-out: b-Raf IC-50
[1] = AlphaScreen, 60 min pre-incubation, reaction 3 hours at room temperature
[2] = AlphaScreen, 60 min pre-incubation, 3 hours reaction
[3] = Table 2, AlphaScreen, 3 hours reaction

b-Raf (V600E), sequence (P15056 whole entry V600E): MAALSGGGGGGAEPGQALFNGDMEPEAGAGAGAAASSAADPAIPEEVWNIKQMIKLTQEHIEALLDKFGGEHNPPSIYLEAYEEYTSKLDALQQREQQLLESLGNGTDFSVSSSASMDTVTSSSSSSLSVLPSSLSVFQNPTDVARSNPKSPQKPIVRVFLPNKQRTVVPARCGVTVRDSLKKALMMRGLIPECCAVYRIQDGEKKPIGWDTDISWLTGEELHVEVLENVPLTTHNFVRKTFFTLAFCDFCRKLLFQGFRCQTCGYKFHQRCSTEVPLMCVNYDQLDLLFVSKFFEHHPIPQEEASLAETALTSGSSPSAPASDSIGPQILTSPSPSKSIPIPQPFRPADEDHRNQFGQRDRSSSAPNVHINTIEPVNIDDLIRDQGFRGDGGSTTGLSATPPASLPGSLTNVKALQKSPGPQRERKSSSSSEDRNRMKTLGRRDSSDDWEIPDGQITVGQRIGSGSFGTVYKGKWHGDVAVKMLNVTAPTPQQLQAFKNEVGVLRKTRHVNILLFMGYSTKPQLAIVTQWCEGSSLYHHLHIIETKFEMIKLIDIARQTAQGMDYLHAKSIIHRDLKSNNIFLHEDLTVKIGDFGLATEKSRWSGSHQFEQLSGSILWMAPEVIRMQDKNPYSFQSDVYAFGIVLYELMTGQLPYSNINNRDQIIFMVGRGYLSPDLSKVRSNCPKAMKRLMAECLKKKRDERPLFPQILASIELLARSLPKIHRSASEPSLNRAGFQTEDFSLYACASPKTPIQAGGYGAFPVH

Row | pIC50 [2] | pIC50 [3] | SMILES | other results
1 | 8.92 |  | COc1nnc(-c2cc(NC(=O)c3cnnc(C(F)(F)F)c3)ccc2C)cc1N1CCOCC1 [Example 551, N-(3-(6-methoxy-5-morpholinopyridazin-3-yl)-4-methylphenyl)-6-(trifluoromethyl)pyridazine-4-carboxamide] | 
2 |  | 8.40 | COCCOc1ncc(-c2cc(NC(=O)c3cccc(C(F)(F)F)c3)cnc2C)cc1N1CCOCC1 [Example 312, N-(6′-(2-methoxyethoxy)-2-methyl-5′-morpholino-[3,3′-bipyridin]-5-yl)-3-(trifluoromethyl)benzamide] | 
3 |  | 7.00 | CCOc1ncc(-c2cc(NC(=O)c3cnnc(C(C)(C)C#N)c3)cnc2C)cc1N1CCOC[C@H]1C [Example 303, (R)-6-(2-cyanopropan-2-yl)-N-(6′-ethoxy-2-methyl-5′-(3-methylmorpholino)-[3,3′-bipyridin]-5-yl)pyridazine-4-carboxamide] | 
4 |  | 6.52 | Cc1ncc(NC(=O)c2cccc(C(F)(F)F)c2)cc1-c1cnc(OC2CNC2)c(N2CCOCC2)c1 [Example 325, N-(6′-(azetidin-3-yloxy)-2-methyl-5′-morpholino-[3,3′-bipyridin]-5-yl)-3-(trifluoromethyl)benzamide] | 
5 | 8.25 |  | CCNc1nc(-c2cc(NC(=O)c3ccnc(C(C)(C)C#N)c3)ccc2C)cc(N2CCOC[C@H]2C)n1 [Example 711, (R)-2-(2-cyanopropan-2-yl)-N-(3-(2-(ethylamino)-6-(3-methylmorpholino)pyrimidin-4-yl)-4-methylphenyl)isonicotinamide] | 
6 |  | 9.22 | Cc1ncc(NC(=O)c2cccc(C(F)(F)F)c2)cc1-c1cnc(N(C)C)c(N2CCOCC2)c1 [Example 307, N-(6′-(dimethylamino)-2-methyl-5′-morpholino-[3,3′-bipyridin]-5-yl)-3-(trifluoromethyl)benzamide] | 
7 |  | 7.47 | Cc1ccc(C(=O)Nc2ccccc2)cc1-c1cc(N2CCOCC2)c(=O)n(C)c1 [Example 429, 4-methyl-3-(1-methyl-5-morpholino-6-oxo-1,6-dihydropyridin-3-yl)-N-phenylbenzamide] | 
8 |  | 6.70 | Cc1ccc(NC(=O)c2cnccn2)cc1-c1ccnc(N2CCOCC2)c1 [Example 70, N-(4-methyl-3-(2-morpholinopyridin-4-yl)phenyl)pyrazine-2-carboxamide] | 
9 |  | 5.44 | Cn1cc(-c2cc(NC(=O)c3cccc(C(F)F)c3)ccc2C#N)cc(N2CCOCC2)c1=O [Example 420, N-(4-cyano-3-(1-methyl-5-morpholino-6-oxo-1,6-dihydropyridin-3-yl)phenyl)-3-(difluoromethyl)benzamide] | 
10 |  | 8.36 | Cc1ccc(NC(=O)c2ccnc(C(C)(C)C#N)c2)cc1-c1cc(N2CCOCC2)c(=O)n(CCC#N)c1 [Example 335, N-(3-(1-(2-cyanoethyl)-5-morpholino-6-oxo-1,6-dihydropyridin-3-yl)-4-methylphenyl)-2-(2-cyanopropan-2-yl)isonicotinamide] | 
11 | 8.66 |  | Cc1ccc(NC(=O)c2cccc(C(F)F)c2)cc1-c1cc(N2CCOCC2)c(=O)n(C)n1 [Example 655, 3-(difluoromethyl)-N-(4-methyl-3-(1-methyl-5-morpholino-6-oxo-1,6-dihydropyridazin-3-yl)phenyl)benzamide] | 
12 | 8.17 |  | Cc1ccc(NC(=O)c2cccc(CC#N)c2)cc1-c1cc(N2CCOCC2)c(=O)n(C)n1 [Example 652, 3-(cyanomethyl)-N-(4-methyl-3-(1-methyl-5-morpholino-6-oxo-1,6-dihydropyridazin-3-yl)phenyl)benzamide] | 
13 |  | 7.84 | Cc1ncc(NC(=O)c2ccnc(C(C)(C)C#N)c2)cc1-c1cnc(OCCO)c(N2CCOCC2)c1 [Example 300, 2-(2-cyanopropan-2-yl)-N-(6′-(2-hydroxyethoxy)-2-methyl-5′-morpholino-[3,3′-bipyridin]-5-yl)isonicotinamide] | 

Second part, the compound before the results:

Row | SMILES | pIC50 [2] | pIC50 [3] | other results
14 | Cc1ccc(NC(=O)c2ccnc(S(C)(=O)=O)c2)cc1-c1cc(N2CCOCC2)nc(N2CCOCC2)c1 [Example 1118, N-(3-(2,6-dimorpholinopyridin-4-yl)-4-methylphenyl)-2-(methylsulfonyl)isonicotinamide] |  |  | pIC50 [1]: 8.99
15 | Cc1ncc(NC(=O)c2ccnc(C(C)C)c2)cc1-c1cc(N2CCOCC2)nc(N2CCOCC2)c1 [Example 1119, 2-isopropyl-N-(2-methyl-2′,6′-dimorpholino-[3,4′-bipyridin]-5-yl)isonicotinamide] |  |  | pIC50 [1]: 8.70
16 | Cc1ccc(NC(=O)c2ccnc(S(C)(=O)=O)c2)cc1-c1cc(N2CCOCC2)n(C)c(=O)c1 [Example 474, N-(4-methyl-3-(1-methyl-6-morpholino-2-oxo-1,2-dihydropyridin-4-yl)phenyl)-2-(methylsulfonyl)isonicotinamide] | 8.66 |  | 
17 | Cc1ccc(NC(=O)c2ccnc(C(C)(F)F)c2)cc1-c1cc(N2CCOCC2)nc(N2CC(O)C2)n1 [Example 772, 2-(1,1-difluoroethyl)-N-(3-(2-(3-hydroxyazetidin-1-yl)-6-morpholinopyrimidin-4-yl)-4-methylphenyl)isonicotinamide] | 8.72 |  | 
18 | CCOc1nnc(-c2cc(NC(=O)c3ccnc(C(C)(C)F)c3)ccc2C)cc1N1CCOCC1 [Example 564, N-(3-(6-ethoxy-5-morpholinopyridazin-3-yl)-4-methylphenyl)-2-(2-fluoropropan-2-yl)isonicotinamide] | 8.89 |  | 
19 | CCOc1nnc(-c2cc(NC(=O)c3ccnc(C(F)(F)CC)c3)cnc2C)cc1N1CCOCC1 [Example 617, 2-(1,1-difluoropropyl)-N-(5-(6-ethoxy-5-morpholinopyridazin-3-yl)-6-methylpyridin-3-yl)isonicotinamide] | 8.46 |  | 
20 | COc1nnc(-c2cc(NC(=O)c3ccnc(C(C)(F)F)c3)ccc2C)cc1N1CCOCC1 [Example 548, 2-(1,1-difluoroethyl)-N-(3-(6-methoxy-5-morpholinopyridazin-3-yl)-4-methylphenyl)isonicotinamide] | 8.96 |  | 
21 | Cc1ccc(NC(=O)c2cc(CN(C)C)cc(C(F)(F)F)c2)cc1-c1cc(N2CCOCC2)c(=O)n(C)c1 [Example 173, 3-((dimethylamino)methyl)-N-(4-methyl-3-(1-methyl-5-morpholino-6-oxo-1,6-dihydropyridin-3-yl)phenyl)-5-(trifluoromethyl)benzamide] |  |  | pIC50: 8.04
22 | Cc1ncc(NC(=O)c2ccnc(C(F)F)c2)cc1-c1cc(N2CCOCC2)n2nccc2n1 [Example 803, 2-(difluoromethyl)-N-(6-methyl-5-(7-morpholinopyrazolo[1,5-a]pyrimidin-5-yl)pyridin-3-yl)isonicotinamide] | 8.72 |  | 
23 | CCn1cc(C(=O)Nc2cnc(C)c(-c3cc(N4CCOCC4)nc(N4CCOCC4)c3)c2)cc(C(F)(F)F)c1=O [Example 1125, 1-ethyl-N-(2-methyl-2′,6′-dimorpholino-[3,4′-bipyridin]-5-yl)-6-oxo-5-(trifluoromethyl)-1,6-dihydropyridine-3-carboxamide] |  |  | pIC50 [1]: 8.00
24 | Cc1ncc(NC(=O)c2ccnc(C(C)(C)F)c2)cc1-c1cc(N2CCOCC2)n2nccc2n1 [Example 790, 2-(2-fluoropropan-2-yl)-N-(6-methyl-5-(7-morpholinopyrazolo[1,5-a]pyrimidin-5-yl)pyridin-3-yl)isonicotinamide] | 8.46 |  | 
25 | Cc1ncc(NC(=O)c2cccc(C(F)(F)F)c2)cc1-c1ccnc(N2CCOCC2=O)c1 [Example 1135, N-(2-methyl-2′-(3-oxomorpholino)-[3,4′-bipyridin]-5-yl)-3-(trifluoromethyl)benzamide] |  |  | pIC50 [1]: 7.37
26 | Cc1ccc(NC(=O)c2cnnc(C(C)(C)C#N)c2)cc1-c1cc(OC2CCOCC2)nc(N2CCOCC2)c1 [Example 1153, 6-(2-cyanopropan-2-yl)-N-(4-methyl-3-(2-morpholino-6-((tetrahydro-2H-pyran-4-yl)oxy)pyridin-4-yl)phenyl)pyridazine-4-carboxamide] |  |  | pIC50 [1]: 8.67
27 | CCNCc1ccc(C(=O)Nc2ccc(C)c(-c3cc(N4CCOCC4)c(OCC)nn3)c2)cc1C(F)(F)F [Example 575, N-(3-(6-ethoxy-5-morpholinopyridazin-3-yl)-4-methylphenyl)-4-((ethylamino)methyl)-3-(trifluoromethyl)benzamide] | 8.54 |  | 
28 | Cc1ccc(NC(=O)c2ccnc(C(C)(C)O)c2)cc1-c1cc(N2CCOCC2)c(S(C)(=O)=O)nn1 [Example 932, 2-(2-hydroxypropan-2-yl)-N-(4-methyl-3-(6-(methylsulfonyl)-5-morpholinopyridazin-3-yl)phenyl)isonicotinamide] |  |  | pIC50 [1]: 8.16
29 | CCn1cc(C(=O)Nc2ccc(C)c(-c3cc(N4CCOCC4)n(C)c(=O)c3)c2)cc(C(F)(F)F)c1=O [Example 481, 1-ethyl-N-(4-methyl-3-(1-methyl-6-morpholino-2-oxo-1,2-dihydropyridin-4-yl)phenyl)-6-oxo-5-(trifluoromethyl)-1,6-dihydropyridine-3-carboxamide] | 8.92 |  | 
30 | CCNc1nc(-c2cc(NC(=O)c3cccc(C(F)(F)F)c3)cnc2C)cc(N2CCOCC2)n1 [Example 716, N-(5-(2-(ethylamino)-6-morpholinopyrimidin-4-yl)-6-methylpyridin-3-yl)-3-(trifluoromethyl)benzamide] | 8.89 |  | 
31 | Cc1ccc(NC(=O)c2ccnc(C(C)C)c2)cc1-c1cc(N2CCOCC2)c(=O)n(C)c1 [Example 348, 2-isopropyl-N-(4-methyl-3-(1-methyl-5-morpholino-6-oxo-1,6-dihydropyridin-3-yl)phenyl)isonicotinamide] |  | 8.57 | 
32 | Cc1ncc(NC(=O)c2cccc(C3(C#N)CC3)c2Cl)cc1-c1cc(N2CCOCC2)c(=O)n(C)c1 [Example 403, 2-chloro-3-(1-cyanocyclopropyl)-N-(1′,2-dimethyl-5′-morpholino-6′-oxo-1′,6′-dihydro-[3,3′-bipyridin]-5-yl)benzamide] |  | 7.21 | 
33 | Cc1ncc(NC(=O)c2ccnc(C(F)F)c2)cc1-c1cc(N2CCOCC2)c(=O)n(C)c1 [Example 392, 2-(difluoromethyl)-N-(1′,2-dimethyl-5′-morpholino-6′-oxo-1′,6′-dihydro-[3,3′-bipyridin]-5-yl)isonicotinamide] |  | 7.82 | 
